Measured values published in PubChem BioAssay (NCI).
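Following 48 hours of exposure in 96-well plates, responses at five concentrations were used to interpolate endpoints linearly. GI50: concentration for 50% inhibition of growth. TGI: total growth inhibition.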

Key:
Experiment in all cases: NCI anticancer screen, dose series, 48 h
KM12 colon = system: KM12 colon
M14 melanoma = system: M14 melanoma
RPMI-8226 leukemia = system: RPMI-8226 leukemia
NCI/ADR-RES ovarian = system: NCI/ADR-RES ovarian
SF-295 CNS = system: SF-295 CNS
RXF 393 renal = system: RXF 393 renal
786-0 renal = system: 786-0 renal
NCI-H522 lung = system: NCI-H522 lung
HS 578T breast = system: HS 578T breast
BT-549 breast = system: BT-549 breast

Row | Structure (SMILES) | GI50 (KM12 colon) | TGI (KM12 colon) | GI50 (M14 melanoma) | TGI (M14 melanoma) | GI50 (RPMI-8226 leukemia) | TGI (RPMI-8226 leukemia) | GI50 (NCI/ADR-RES ovarian) | TGI (NCI/ADR-RES ovarian) | GI50 (SF-295 CNS) | TGI (SF-295 CNS) | GI50 (RXF 393 renal) | TGI (RXF 393 renal) | GI50 (786-0 renal) | TGI (786-0 renal) | GI50 (NCI-H522 lung) | TGI (NCI-H522 lung) | GI50 (HS 578T breast) | TGI (HS 578T breast) | GI50 (BT-549 breast) | TGI (BT-549 breast)
1 | O=c1c(Br)ccc(Br)cc1Br | 2.64 µM | 6.36 µM | 1.48 µM | 2.91 µM | 0.532 µM | 2.89 µM | 2.56 µM | 7.16 µM | 8.01 µM | 22.4 µM | 1.65 µM | 3.06 µM | 2.07 µM | 3.7 µM | 0.17 µM | 0.364 µM | 3.44 µM | 23.1 µM | 2.08 µM | 3.98 µM
2 | C/C(=N\O)c1ccc(Nc2cc(-c3ccccc3)nc3c(O)cccc23)cc1 | 4.06 µM | 21.4 µM | 16.2 µM | 31.3 µM | 4.5 µM | 30.8 µM | 8.54 µM | 35.5 µM | 5.24 µM | 18.3 µM | 7.47 µM | 24.7 µM | 17.2 µM | 31.8 µM | 16.7 µM | 33.3 µM | 15.9 µM | 62.4 µM | 23.3 µM | 86.6 µM
3 | COc1ccc2nc3c(cc2c1)C(=O)CC(C(F)(F)F)C3 (centres undefined) | 0.351 µM | > 100 µM | 0.238 µM | > 100 µM | 13.7 µM | > 100 µM | 0.367 µM | > 100 µM | 1.41 µM | 23.3 µM | 0.562 µM | 5.1 µM | 4.36 µM | > 100 µM | 0.49 µM | > 100 µM | 2.19 µM | > 100 µM | 3.1 µM | > 100 µM
4 | COc1cc(-c2nc3cc(Cl)c(Cl)cc3[nH]2)ccc1OCC(=O)N=Nc1c(O)[nH]c2ccccc12 | 1.07 µM | 3.19 µM | 0.328 µM | 1.33 µM | 0.645 µM | 3.35 µM | > 79.9 µM | > 100 µM | 1.28 µM | 2.71 µM | 0.678 µM | 2.1 µM | 0.37 µM | 1.54 µM | 0.301 µM | 2.18 µM | 1.21 µM | 4.05 µM | 0.822 µM | 2.29 µM
5 | COc1cc(Nc2nccc(-c3cnn4ncccc34)n2)cc(OC)c1 | 0.0349 µM | 0.272 µM | 0.0891 µM | 0.838 µM | 0.0862 µM | 0.388 µM | 0.0937 µM | 2.26 µM | 0.0572 µM | 0.721 µM | 0.0455 µM | 0.131 µM | 0.0861 µM | > 17.6 µM | 0.079 µM | 0.619 µM | 0.096 µM | > 5.62 µM | 0.0893 µM | 2.19 µM
6 | Cc1cnc2n(c1=O)Cc1ccccc1CO2 | 18 µM | 34.3 µM | 14.5 µM | 29.1 µM | 13.1 µM | 41 µM | 22.7 µM | 71.4 µM | 33.2 µM | > 100 µM | 15.2 µM | 36.8 µM | 18.8 µM | 39.4 µM | 3.8 µM | 18.8 µM | 23.9 µM | > 100 µM | 15.5 µM | 32.8 µM
7 | c1ccc2c(c1)-c1nc3ccccc3cc1C2N1CCOCC1 (centres undefined) |  | > 100 µM |  | > 100 µM |  | > 100 µM |  | > 100 µM |  | > 100 µM |  | > 100 µM |  | > 100 µM |  | > 100 µM |  | > 100 µM |  | > 100 µM
8 | O=C(Nc1ccc(-n2cc(-c3ccncc3)c(-c3ccc(Cl)c(O)c3)n2)cc1)c1ccc(Cl)c(C(F)(F)F)c1 | 0.451 µM | 2.88 µM | 1.16 µM | 3.29 µM | 0.426 µM | 2.68 µM | 2.77 µM | > 100 µM | 0.216 µM | 0.475 µM | 0.213 µM | 0.606 µM | 0.308 µM | 0.919 µM | 1.14 µM | 4.04 µM | 0.538 µM |  | 1.12 µM | 12.6 µM
9 | Nc1ncnc2c1c(-c1ccc(Oc3ccccc3)cc1)nn2C[C@H]1SSC[C@H]1O | 0.0618 µM | 2.22 µM | 0.0157 µM | 0.0332 µM | 1.95 µM | 9.13 µM | 1.77 µM | 4.87 µM | 0.678 µM | 3.19 µM | 1.35 µM | 4.31 µM | 2.04 µM | 6.37 µM | 0.953 µM | 3.16 µM | 1.88 µM | 8.7 µM | 2.18 µM | 6.52 µM
10 | Nc1c(S(=O)(=O)O)cc2c(c1Cl)C(=O)c1ccccc1C2=O | > 100 µM | > 100 µM | > 100 µM | > 100 µM | > 100 µM | > 100 µM | > 100 µM | > 100 µM | > 100 µM | > 100 µM | > 100 µM | > 100 µM | > 100 µM | > 100 µM | > 100 µM | > 100 µM | > 100 µM | > 100 µM | > 100 µM | > 100 µM
11 | CN(CC(=O)O)Cc1c[nH]c2ccccc12 |  | > 100 µM |  | > 100 µM |  | > 100 µM |  | > 100 µM |  | > 100 µM |  | > 100 µM |  | > 100 µM |  | > 100 µM |  | > 100 µM |  | > 100 µM
12 | N=C(N)c1ccc(-c2ccc(-c3ccccc3)o2)o1 | 2.61 µM | 9.93 µM | 1.62 µM | 3.4 µM | 2.89 µM | 8.21 µM | 2.82 µM | 11 µM | 1.81 µM | 4.03 µM | 2.33 µM | 6.55 µM | 1.74 µM | 3.54 µM | 1.94 µM | 3.89 µM | 3.81 µM | 21.2 µM | 4.12 µM | 16 µM
13 | CC/C(=C(/c1ccc(Cl)cc1)c1ccc(OCCCN(C)C)cc1)c1ccc(OC)cc1 | 2.55 µM | 10.1 µM | 0.966 µM | 1.92 µM | 1.17 µM | 2.54 µM | 7.27 µM | 16.3 µM | 0.918 µM | 1.87 µM | 1.16 µM | 3.45 µM | 0.771 µM | 1.46 µM | 6.56 µM | 13.7 µM | 7.08 µM | 16.9 µM | 1.13 µM | 2.89 µM
